From patent publication US20190010158A1, “ANTITUMOR EFFECT POTENTIATOR COMPRISING PYRROLOPYRIMIDINE COMPOUND” (TAIHO PHARMACEUTICAL CO., LTD, priority 2015, published 2019)

What was measured:
[1] = tested on: tumor cell line shown in Table 38; assay: Example 9: combined use with BCL-2 inhibitor, cell growth inhibition test (IC50 ratio, CI); type: cell-based; details: MOLT-4; for CI: at ED50
U266B1 = assay: Example 1: combined use with proteasome inhibitor, cell growth inhibition test (IC50 ratio, CI), U266B1; type: cell-based, human; details: for CI: at ED50
[2] = tested on: Human multiple myeloma (MM) KMS-26 cell lines; assay: Example 16: tumor growth inhibition in mice, combinational treatment with bortezomib; type: in vivo; details: KMS-26 in mice; 1 mg/kg/day, days 1, 4, 8, 11; day 15
Text: (§1) The test ended on day 15.
A necessary amount of the test compound was weighed to prepare a solution to administer to the mice.
(§2) RTVn=TVn/TV1 (equation D)
(§3) BWCn (%)=(BWn−BW1)/BW1×100 (equation F)

[3] = tested on: tumor cell lines shown in Table 58; assay: Example 22: combined use with IAP antagonist, cell growth inhibition test (IC50 ratio, CI); type: cell-based; details: HL-60; for CI: at ED50
[4] = tested on: tumor cell line shown in Table 36; assay: Example 8: combined use with BTK inhibitor, cell growth inhibition test (IC50 ratio, CI); type: cell-based; details: MV-4-11; for CI: at ED50
[5] = tested on: tumor cell line shown in Table 34; assay: Example 7: combined use with Exportin-1 inhibitor, cell growth inhibition test (IC50 ratio, CI); type: cell-based; details: HCT116; for CI: at ED50
carbonic anhydrase II = carbonic anhydrase II (Homo sapiens, UniProt P00918); details: background art, Non-patent Literature 8; cited from earlier work
[6] = background art, Non-patent Literature 7; decrease in plasma concentration; cited from earlier work
[7] = tested on: tumor cell line shown in Table 28; assay: Example 4: combined use with PARP inhibitor, cell growth inhibition test (IC50 ratio, CI); type: cell-based; details: A549; for CI: at ED50
[8] = tested on: human acute myelogenous leukemia (AML) THP-1 cell lines; assay: Example 21: tumor growth inhibition in mice, combinational treatment with azacytidine; type: in vivo; details: THP-1 in mice; intraperitoneally 20 mg/kg/day, days 1, 4, 8, 11, 15, 18; day 22
Text: as §2, §3
The test ended on day 22.

[9] = tested on: tumor cell lines shown in Table 24; assay: Example 2: combined use with tyrosine kinase inhibitor, cell growth inhibition test (IC50 ratio, CI); type: cell-based; details: MOLT-4; for CI: at ED50
[10] = tested on: human acute myelogenous leukemia (AML) MV-4-11 cell lines; assay: Example 17: tumor growth inhibition in mice, combinational treatment with gilteritinib; type: in vivo; details: MV-4-11 in mice; orally 3 mg/kg/day, days 1-14; day 15
Text: as §2, §3, §1

[11] = IC50 of Reference Example Compound 55 : IC50 of other compound = 1:value
[12] = Reference Example Compound 55:other compound 1:60
[13] = combined use with Reference Example Compound 55

Compound: CC1(C)CCC(CN2CCN(c3ccc(C(=O)NS(=O)(=O)c4ccc(NCC5CCOCC5)c([N+](=O)[O-])c4)c(Oc4cnc5[nH]ccc5c4)c3)CC2)=C(c2ccc(Cl)cc2)C1 [ABT-199]
- IC50 Ratio [1, 11]: 119
- CI [1, 12]: 0.37
- CI ([1]; Reference Example Compound 55:other compound 1:180): 0.40
- Comprehensive Evaluation [1, 13]: Synergism (0.3-0.7)

Compound: CC(C)C[C@H](NC(=O)[C@H](Cc1ccccc1)NC(=O)c1cnccn1)B(O)O [Bortezomib, bortezomib]
- IC50 Ratio (U266B1; [11]): 0.05
- CI (U266B1; Reference Example Compound 55:other compound 1:0.02): 0.56
- CI (U266B1; Reference Example Compound 55:other compound 1:0.07): 0.51
- Comprehensive Evaluation (U266B1; [13]): Synergism (0.3-0.7)
- BWC15 (%) Mean ± SD [2]: 1.3 ± 3.2%
- RTV15 Mean ± SD [2]: 6.9 ± 3.2
- T/C15 (%) [2]: 66%

Compound: CN[C@@H](C)C(=O)N[C@H](C(=O)N1CCC[C@H]1C(=O)Nc1snnc1-c1ccccc1)C1CCCCC1 [GDC-0152]
- IC50 Ratio [3, 11]: 2122
- CI ([3]; Reference Example Compound 55:other compound 1:90): 0.45
- CI ([3]; Reference Example Compound 55:other compound 1:270): 0.62
- Comprehensive Evaluation [3, 13]: Synergism (0.3-0.7)

Compound: C=CC(=O)N1CCC[C@@H](n2nc(-c3ccc(Oc4ccccc4)cc3)c3c(N)ncnc32)C1 [Ibrutinib, ibrutinib]
- IC50 Ratio [4, 11]: 140
- CI ([4]; Reference Example Compound 55:other compound 1:111): 0.70
- CI ([4]; Reference Example Compound 55:other compound 1:333): 0.72

Compound: O=C(/C=C\n1cnc(-c2cc(C(F)(F)F)cc(C(F)(F)F)c2)n1)NNc1cnccn1 [KPT-330]
- IC50 Ratio [5, 11]: 21
- CI ([5]; Reference Example Compound 55:other compound 1:11): 0.69
- CI ([5]; Reference Example Compound 55:other compound 1:33): 0.75
- Comprehensive Evaluation [5, 13]: Moderate

Compound: NS(=O)(=O)OC[C@@H]1C[C@@H](n2ccc3c(N[C@H]4CCc5ccccc54)ncnc32)C[C@@H]1O [MLN4924, N-[(1S)-1-indanyl]-7-[(1R)-3α-hydroxy-4α-(sulfamoyloxymethyl)cyclopentyl]-7H-pyrrolo[2,3-d]pyrimidin-4-amine]
- inhibition of carbonic anhydrase II activity (carbonic anhydrase II): inhibits the activity
- transfer of administered drug to red blood cells in the blood [6]: transferred to red blood cells

Compound: O=C(c1cc(Cc2n[nH]c(=O)c3ccccc23)ccc1F)N1CCN(C(=O)C2CC2)CC1 [Olaparib, olaparib]
- IC50 Ratio [7, 11]: 21
- CI ([7]; Reference Example Compound 55:other compound 1:10): 0.61
- CI ([7]; Reference Example Compound 55:other compound 1:30): 0.69
- Comprehensive Evaluation [7, 13]: Synergism (0.3-0.7)

Compound: Nc1ncn([C@@H]2O[C@H](CO)[C@@H](O)[C@H]2O)c(=O)n1 [azacytidine]
- BWC22 (%) Mean ± SD [8]: 3.6 ± 4.5%
- RTV22 Mean ± SD [8]: 8.8 ± 2.0
- T/C22 (%) [8]: 45%

Compound: CCc1nc(C(N)=O)c(Nc2ccc(N3CCC(N4CCN(C)CC4)CC3)c(OC)c2)nc1NC1CCOCC1 [gilteritinib]
- CI ([9]; Reference Example Compound 55:other compound 1:20): 0.96
- CI [9, 12]: 0.88
- Comprehensive Evaluation [9, 13]: Additive (0.9-1.10)
- BWC15 (%) Mean ± SD [10]: 5.8 ± 3.0%
- RTV15 Mean ± SD [10]: 1.9 ± 0.5
- T/C15 (%) [10]: 41%
